For one data set, the system named is SARS-CoV-2 Mpro. The conditions noted are these: cited from earlier work; for IC50: literature value.
Data set [1] in a line: Oral dose escalation pharmacokinetics (10 and 100 mg/kg PO). The class given is in vivo, rat. The conditions noted are these: for AUC(0-inf) / Cmax / Tlast / Tmax / half-life / concentration at 24 h: rat plasma, mean ± SD, n = 3; for concentration at 24 h: read-out: Clast. As for the experimental part: (§1) To this end, 36 was studied in male Sprague–Dawley rats following a single intravenous dose at 0.25 mg/kg and an oral dose at 0.5 mg/kg (SI, Table S18).
Table S19. Summary of Pharmacokinetic Parameters (nmol/mL) for Compound 36 in Rat Plasma after a Single Oral
Dose of 36 at 10 mg/kg or 100 mg/kg
Dose Tmax Cmax Tlast Clast AUCinf t1/2
(mg/kg) (h) (nmol/mL) (h) (nmol/mL) (h*nmol/mL) (h)
Results are shown as averages and standard deviations (n = 3).
Figure S18. Average Concentrations (nmol/mL) of Compound 36 in Rat Plasma after a Single Oral Dose of 36 at 10
Left panel: Linear Scale, Right panel: Log Scale. Results are shown as averages and standard deviations (n = 3). […]

Data set [2] can be described thus: Mouse liver microsome stability assay.
Procedure: Metabolic Stability Assay
(§2) Liver Microsome Stability Assay Protocol
(§3) Human liver microsomes (HLMs, 20 mg/mL), CD-1 mouse liver microsomes (MLMs, 20 mg/mL), Sprague Dawley
(§4) rat liver microsomes (RLMs, 20 mg/mL) were purchased from Xenotech. NADPH was purchased from Sigma-
(§5) Aldrich and prepared in 10 mM stock solutions of distilled H2O (InvitrogenTM UltraPureTM). Verapamil and
(§6) diphenhydramine were both purchased from Sigma-Aldrich and served as positive controls for LM stability assays.
(§7) Test compounds and positive controls were initially dissolved in DMSO to make 10 mM stock solutions. Sample
(§8) solutions were then further diluted in 100% MeCN to 500 μM. Next, the reactions were prepared by mixing human
(§9) or mouse liver microsomes (55 μL) with potassium phosphate buffer (100 mM, 928 μL) in 1.5 mL Eppendorf tubes.
(§10) The test compounds (6.6 μL of 500 μM solution) were subsequently added to the suspensions, and the reaction
(§11) mixtures were incubated at 37 °C for 5 min. Afterward, the liver microsome reactions were initiated with 110 μL
(§12) of 10 mM NADPH and further incubated at 37 °C for the designated time course of the study. This procedure
(§13) provided experiments with a final volume of 1100 μL (0.6% organic solvent content) and a final test compound
(§14) concentration of 3 μM. Aliquots (100 μL) were removed from each reaction mixture in duplicate at 0, 5, 10, 15,
(§15) and 30 min time intervals and quenched with 100 μL of cold internal standard solution (ISTD, 2 μM
(§16) 7-ethoxy-d 5-coumarin in MeOH or MeCN). Quenched aliquots were then centrifuged at 12,500 g for 5-10 min, and
(§17) the resulting supernatants were withdrawn and placed in LC-MS vials to be analyzed by LC-MS/MS (Agilent
(§18) G6460C QQQ MS coupled with an Infinity II 1260 HPLC). Each test compound was run in tandem with positive and
(§19) negative control experiments for quality assurance. Positive control reactions were conducted at a final volume
(§20) of 550 μL for a single run of each time point. Lastly, the negative control experiment was conducted with test
(§21) compounds and liver microsomes in the absence of NADPH (150 μL) and analyzed at the 30 min time point.
(§22) Data Analysis. Each data point was analyzed in triplicate using in-between blank washes to avoid carry over and
(§23) to equilibrate the column for the subsequent runs. Averages of these triplicates for individual compounds at each
(§24) time point were then normalized to the data at 0 min, representing 100% test compound remaining or 0%
(§25) metabolism. Half-lives (t 1/2) were calculated by plotting ln of % test compound remaining versus time and
(§26) performing linear regression to determine slope.
(§27) Instrumentation and LC-MS/MS Method Development
(§28) LC-MS/MS analyses were conducted on an Agilent 1260 Infinity II HPLC equipped with an Agilent G6460 triple
(§29) quadrupole mass spectrometer (Agilent Technologies, USA). Reverse-phase HPLC separation for each compound
(§30) m) column maintained at 40 °C. The mobile phase used during analyses consisted of either MeOH-H2O (0.1% FA)
(§31) or MeCN-H2O (0.1% FA) at a flow rate of 0.5 mL/min. Each method was developed in the presence of the internal
(§32) standard (ISTD), 7-ethoxy-d 5-coumarin. Precursor and product ion detection was performed with Agilent Jet
(§33) Stream electrospray positive ionization (ESI+) in multiple reaction monitoring (MRM) mode. All MRM transitions,
(§34) MS conditions were as follows: dwell time of 100 ms; gas flow of 10 L/min; nebulizer pressure of 45 psi; delta EMV
(§35) of 200 V. Lastly, all acquired data was processed using Agilent 6460 Quantitative Analysis software.
A further data set has as its target SARS-CoV-2 Mpro (3CLpro) (Severe acute respiratory syndrome coronavirus 2, UniProt P0DTD1). Put plainly: SARS-CoV-2 recombinant protease enzymatic assay (FRET). Format: biochemical. As to conditions: recombinant Mpro, FRET peptide substrate.
Data set [3] can be described thus: Pharmacokinetics after single IV and PO administration. Format: in vivo, Male Sprague Dawley rats. As to conditions: male, Sprague-Dawley, rat, plasma. As for the experimental part:
as §1
Figure S16: Metabolite identification study of Compound 43 in liver microsomes using liquid chromatography coupled to high resolution mass spectrometry (LC-HRMS). The identification of metabolite Compound 43 M1 […]
MS analysis was performed using full scan from a mass range of 100-700 m/z at 60k resolution with data dependent MS/MS and MSn programs enabled for the top 5 ions detected for each scan. Compounds are detected based on their MS1 precursor ion accurate mass m/z and identified with matching theoretical and observed accurate mass MS1 ions with interpretation of accurate mass MS/MS spectra from expected […]
Table S18: Pharmacokinetic data of Compound 36 in Male Sprague Dawley rats following a single intravenous and oral administration (Dose: 0.25 mg/kg, IV and 0.5 mg/kg, PO)
Dose Tmax aC0/Cmax T1/2 CL Vss
Matrix Route AUClast AUCinf (mL/min %F […]
a – Back extrapolated concentration in IV group.
Figure S17: Plasma concentrations-time profiles (mean ± SD) of Compound 36 in Male Sprague Dawley rats following a single intravenous and oral administration (Dose: 0.25 mg/kg, IV and 0.5 mg/kg, PO) […]
(1 picture or pasted object on this page, not shown here)

The nature of data set [4]: Rat liver microsome stability assay. As to conditions: 37 °C. A general note: Liver microsomes are vesicles of endoplasmic reticulum, rich in cytochrome P450 enzymes.
Procedure: Metabolic Stability Assay
as §2, §3, §4, §5, §6, §7, §8, §9, §10, §11, §12, §13, §14, §15, §16, §17, §18, §19, §20, §21, §22, §23, §24, §25, §26, §27, §28, §29, §30, §31, §32, §33, §34, §35
A short description of another data set: in vitro. As to conditions: chlorocebus sabaeus.
Data set [5] in a line: Human liver microsome stability assay.
Procedure: Metabolic Stability Assay
as §2, §3, §4, §5, §6, §7, §8, §9, §10, §11, §12, §13, §14, §15, §16, §17, §18, §19, §20, §21, §22, §23, §24, §25, §26, §27, §28, §29, §30, §31, §32, §33, §34, §35
Data set [6] concerns SARS-CoV-2-Nluc reporter virus. Put plainly: microbe, parasite or virus in culture. The class given is cell-based. The conditions noted are these: Severe acute respiratory syndrome coronavirus 2; VeroE6/TMPRSS2 cells; parentheses denote 95% confidence intervals.

Several values for one entry are separate records, joined by “and”; a condition that tells them apart may be missing. Identical values can stand only once. Like-named read-outs stand apart in the source and are kept apart here. Some results are limits rather than exact numbers.

The term IC50 denotes the concentration that inhibits the measured activity by half. As usually defined, the AUC(0-inf) is the area under the concentration-time curve extrapolated to infinity. The low end stands for low exposure, the high end for high exposure. The term Cmax denotes the maximum level reached in the sampled fluid or tissue. Broadly, the Tmax is the time at which the peak concentration occurs. The half-life is how long it takes for the measured level to halve. Read a high half-life as slow decline. As a reminder, the share remaining is the share of the starting amount still present when the sample was taken. Low values mean a greater loss, high ones greater stability. What is called bioavailability is the share of a dose that reaches the circulation, judged against a reference dose that is usually intravenous. Broadly, the AUC(0-t) is exposure summed from dosing to a finite time, without extrapolation to infinity. A word on the EC50: it is the midpoint of the concentration-response curve.

For the compound `N#Cc1ccccc1-c1cc(-c2ccccn2)cn(-c2ccccc2)c1=O` [Perampanel, perampanel], the IC50 with SARS-CoV-2 Mpro is 100 to 200 µM.
On to `O=c1[nH]cccc1-c1cn(-c2cc(Cl)cc(OCCC(F)(F)F)c2)c(=O)n(-c2cccnc2)c1=O` [Compound 36], for which, in data set [1] (10 mg/kg vs 100 mg/kg PO), the “increase in AUC on 10-fold increase in dose” value is 2 fold. Moreover, in [1] (PO 10 mg/kg), the AUC(0-inf) turned out to be 23.2 ± 2.18 µM·h, the highest level (Cmax) was 2610 ± 476 nM, the Tlast came to 24.0 ± 0.00 h and the Tmax is 1.67 ± 0.577 h. Moreover, in data set [1] (PO 10 mg/kg), the half-life is 2.68 ± 0.31 h and the concentration at 24 h came to 12.6 ± 6.27 nM. Moreover, in [1] (PO 100 mg/kg), the AUC(0-inf) came out at 49.9 ± 4.53 µM·h, the concentration peaked (Cmax) at 4130 ± 161 nM, the Tlast came to 24.0 ± 0.00 h and the Tmax was determined as 2.33 ± 1.53 h. Also, in [1] (PO 100 mg/kg), the half-life was 3.73 ± 1.08 h and the concentration at 24 h is 114 ± 105 nM. Moreover, the “MLM percentage remaining after 30 min” value in [2] (3 μM, 37 °C, 30 min) is 73.3% and 73.26%. In data set [2] (CD-1, mouse, microsomes), this compound had a half-life at 3 µM of over 0.5 h; a fraction remaining at 5 min, 3 µM of 93.9%; an amount remaining at 10 min, 3 µM of 90.1%; a fraction remaining at 0.25 h, 3 µM of 83.8%. In addition, the IC50 on SARS-CoV-2 Mpro (3CLpro) turned out to be 0.055 µM. Further, the bioavailability in [3] (PO 0.5 mg/kg vs IV 0.25 mg/kg, read-out: %F (oral bioavailability)) was 40.6% and 41%. In data set [3] (IV 0.25 mg/kg), this compound showed an AUC(0-inf) of 1680 ng·h/mL, an AUC(0-t) of 1610 ng·h/mL, a clearance of 2.49 mL/min/kg and a half-life of 1.71 h. Moreover, in [3] (IV 0.25 mg/kg, read-out: C0 (back extrapolated concentration)), the C0 is 1330 ng/mL. Also, the Vd in [3] (IV 0.25 mg/kg, read-out: Vss) turned out to be 0.33 L/kg. Moreover, in [3] (PO 0.5 mg/kg), the AUC(0-inf) worked out at 1690 ng·h/mL, the AUC(0-t) came to 1310 ng·h/mL, the Cmax worked out at 285 ng/mL and the Tmax worked out at 1.67 h. For the same compound, the “RLM percentage remaining after 30 min” value in data set [4] (3 μM, 30 min) was 86.4% and 86.41%. This compound also gave an amount remaining at 5 min, 3 µM in data set [4] (Sprague-Dawley, rat, microsomes, RLM Rel % remaining, 5 min) of 95.4%. This compound had an amount remaining at 10 min, 3 µM in data set [4] (Sprague-Dawley, rat, microsomes, RLM Rel % remaining, 10 min) of 90.9%. The same compound came in with an amount remaining at 0.25 h, 3 µM in data set [4] (Sprague-Dawley, rat, microsomes, RLM Rel % remaining, 15 min) of 88.8%. In data set [4] (Sprague-Dawley, rat, microsomes, RLM t1/2, 3 μM, unit inferred), the half-life at 3 µM was over 0.5 h. In addition, the CC50 in the data set “in vitro” was over 100 µM. For the same compound, the “HLM percentage remaining after 30 min” value in data set [5] (3 μM, 37 °C, 30 min) was 91.7% and 91.71%. Also, in data set [5] (human, microsomes), the half-life at 3 µM is over 0.5 h; the share remaining at 5 min, 3 µM came out at 98.2%; the amount remaining at 10 min, 3 µM turned out to be 97.7%; the share remaining at 0.25 h, 3 µM turned out to be 98.2%. The EC50 in data set [6] turned out to be 1.35 µM.
As to `N#Cc1ccccc1-c1cc(-c2cccc(Cl)c2)c(=O)n(-c2cccnc2)c1` [Compound 2], in the data set with SARS-CoV-2 Mpro, the half-maximal inhibitory concentration (IC50) was 9.99 µM. Moreover, in the data set with SARS-CoV-2 Mpro (relative to perampanel 1), the “improvement in potency over 1” value is given as 10 fold.

The values above are taken from paper PMC10577883, “Design and Optimization of Novel Competitive, Non-peptidic, SARS-CoV-2 M^pro Inhibitors” (ACS Medicinal Chemistry Letters, 2023).
